Laboratory results reported in patent US20010044445A1, “AZOLE INHIBITORS OF CYTOKINE PRODUCTION” (priority 1999, published 2001).

Tests used:
[1] = system: Human peripheral blood mononuclear cells; test: Human Concanavalin-A Proliferation Assay (Con HU Assay); assay type: cell-based; conditions: Homo sapiens, PBMC, concanavalin-A stimulated human PBMC; for inhibition at 1 µM / inhibition at 10 µM / inhibition at 100 µM: 72 h, 3 days, read-out: % Inhibition of proliferation (at concentrations of 1,10, or 100 μm); for inhibition at 1 µM: concentration 1 μm (in parentheses in the cell); for IC50: tritiated thymidine; for inhibition at 10 µM: concentration 10 μm (in parentheses in the cell); for inhibition at 100 µM: concentration 100 μm (in parentheses in the cell)
How it was run: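 Proliferation read as tritiated thymidine uptake (0.5 μCi/well, 6 h pulse on day 3) in human PBMC cultured 3 days with 2.5 μg/ml (final) concanavalin-A. Cells, 50,000 per well in supplemented RPMI 1640 with 10% FBS, received compound 15 min before mitogen.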

## Cc1cc(Br)cc(C)c1NC(=O)Nc1ccc(-n2nc(C(F)(F)F)cc2C(F)(F)F)cc1 [Example 45, N-[4-[3,5-bis(trifluoromethyl)-1H-pyrazol-1-yl]phenyl]-N′-(4-bromo-2,6-dimethylphenyl)urea]
other
  melting point: > 230 °C
[1]
  inhibition at 1 µM: 18%

## O=C(Nc1ccc(-n2nc(C(F)(F)F)cc2C(F)(F)F)cc1)c1ccc(-n2cccc2)cc1 [Example 46, N-[4-[3,5-bis(trifluoromethyl)-1H-pyrazol-1-yl]phenyl]-4-(1H-pyrrol-1-yl)benzamide]
other
  melting point: 249 to 252 °C
[1]
  inhibition at 1 µM: 10%

## O=C(Nc1ccc(-n2nc(C(F)(F)F)cc2C(F)(F)F)cc1)Nc1ccc(Cl)cc1[N+](=O)[O-] [Example 48, N-[4-[3,5-bis(trifluoromethyl)-1H-pyrazol-1-yl]phenyl]-N′-(4-chloro-2-nitrophenyl)urea]
other
  melting point: 225 to 227 °C
[1]
  inhibition at 1 µM: 85%
  IC50: 468 nM

## COc1cccc2cc(C(=O)Nc3ccc(-n4nc(C(F)(F)F)cc4C(F)(F)F)cc3)oc12 [Example 49, N-[4-[3,5-bis(trifluoromethyl)-1H-pyrazol-1-yl]phenyl]-7-methoxy-2-benzofurancarboxamide]
other
  melting point: 109 to 110 °C
[1]
  inhibition at 1 µM: 9%

## O=C(Nc1ccc(-n2nc(C(F)(F)F)cc2C(F)(F)F)cc1)c1cccc(CO)c1 [Example 51, N-[4-[3,5-bis(trifluoromethyl)-1H-pyrazol-1-yl]phenyl]-3-(hydroxymethyl)benzamide]
other
  melting point: 160 to 162 °C
[1]
  inhibition at 10 µM: 100%
  IC50: 778 nM

## N#CCC(=O)Nc1ccc(-n2nc(C(F)(F)F)cc2C(F)(F)F)cc1 [Example 52, N-[4-[3,5-bis(trifluoromethyl)-1H-pyrazol-1-yl]phenyl]-2-cyanoacetamide]
other
  melting point: 140 to 143 °C
[1]
  inhibition at 1 µM: 26%

## COC(C(=O)Nc1ccc(-n2nc(C(F)(F)F)cc2C(F)(F)F)cc1)(c1ccccc1)C(F)(F)F (stereo not drawn) [Example 55, N-[4-[3,5-bis(trifluoromethyl)-1H-pyrazol-1-yl]phenyl]-α-methoxy-α-(trifluoromethyl)benzeneacetamide]
other
  melting point: 127 to 129 °C
[1]
  inhibition at 1 µM: 13%

## CCCCCCC(=O)Nc1ccc(-n2nc(C(F)(F)F)cc2C(F)(F)F)cc1 [Example 56, N-[4-[3,5-bis(trifluoromethyl)-1H-pyrazol-1-yl]phenyl]heptanamide]
other
  melting point: 88 to 90 °C
[1]
  inhibition at 1 µM: 32%

## O=C(Nc1ccc(-n2nc(C(F)(F)F)cc2C(F)(F)F)cc1)c1ccccc1Oc1ccccc1 [Example 57, N-[4-[3,5-bis(trifluoromethyl)-1H-pyrazol-1-yl]phenyl]-2-phenoxybenzamide]
other
  melting point: 108 to 109 °C
[1]
  inhibition at 1 µM: 5%

## Nc1cccc(C(=O)Nc2ccc(-n3nc(C(F)(F)F)cc3C(F)(F)F)cc2)c1 [Example 58, 3-Amino-N-[4-[3,5-bis(trifluoromethyl)-1H-pyrazol-1-yl]phenyl]benzamide]
other
  melting point: 203 to 204 °C
[1]
  inhibition at 10 µM: 97%
  IC50: 484 nM

## Nc1ccc(C(=O)Nc2ccc(-n3nc(C(F)(F)F)cc3C(F)(F)F)cc2)cc1 [Example 59, 4-Amino-N-[4-[3,5-bis(trifluoromethyl)-1H-pyrazol-1-yl]phenyl]benzamide]
other
  melting point: > 240 °C
[1]
  inhibition at 1 µM: 54%

## [N-]=[N+]=Nc1ccc(C(=O)Nc2ccc(-n3nc(C(F)(F)F)cc3C(F)(F)F)cc2)cc1 [Example 60, 4-Azido-N-[4-[3,5-bis(trifluoromethyl)-1H-pyrazol-1-yl]phenyl]benzamide]
other
  melting point: 182 to 184 °C
[1]
  inhibition at 100 µM: 100%
  IC50: 296 nM

## CSCCC(=O)Nc1ccc(-n2nc(C(F)(F)F)cc2C(F)(F)F)cc1 [Example 65, N-[4-[3,5-bis(trifluoromethyl)-1H-pyrazol-1-yl]phenyl]-3-(methylthio)propanamide]
other
  melting point: 122 to 123 °C
[1]
  inhibition at 100 µM: 98%
  IC50: 1820 nM

## N#Cc1ccc(C(=O)Nc2ccc(-n3nc(C(F)(F)F)cc3C(F)(F)F)cc2)cc1 [Example 67, N-[4-[3,5-bis(trifluoromethyl)-1H-pyrazol-1-yl]phenyl]-4-cyanobenzamide]
other
  melting point: 169 to 171 °C
[1]
  inhibition at 100 µM: 100%
  IC50: 254 nM

## O=C(Nc1ccc(-n2nc(C(F)(F)F)cc2C(F)(F)F)cc1)C1CC1c1ccccc1 (centres unmarked) [Example 68, N-[4-[3,5-bis(trifluoromethyl)-1H-pyrazol-1-yl]phenyl]-2-phenylcyclopropanecarboxamide]
other
  melting point: 176 to 178 °C
[1]
  inhibition at 100 µM: 99%
  IC50: 2440 nM

## O=C(Nc1ccc(-n2nc(C(F)(F)F)cc2C(F)(F)F)cc1)c1ccc(I)cc1 [Example 69, N-[4-[3,5-bis(trifluoromethyl)-1H-pyrazol-1-yl]phenyl]-4-iodobenzamide]
other
  melting point: 196 to 198 °C
[1]
  inhibition at 100 µM: 98%
  IC50: 506 nM

## O=C(CCCl)Nc1ccc(-n2nc(C(F)(F)F)cc2C(F)(F)F)cc1 [Example 70, N-[4-[3,5-bis(trifluoromethyl)-1H-pyrazol-1-yl]phenyl]-3-chloropropanamide]
other
  melting point: 144 to 145 °C
[1]
  inhibition at 100 µM: 100%
  IC50: 913 nM

## COc1ccc(C(=O)Nc2ccc(-n3nc(C(F)(F)F)cc3C(F)(F)F)cc2)cc1 [Example 71, N-[4-[3,5-bis(trifluoromethyl)-1H-pyrazol-1-yl]phenyl]-4-methoxybenzamide]
other
  melting point: 205 to 207 °C
[1]
  inhibition at 10 µM: 87%
  IC50: 544 nM

## O=C(Nc1ccc(-n2nc(C(F)(F)F)cc2C(F)(F)F)cc1)c1ccc(O)cc1 [Example 73, N-[4-[3,5-bis(trifluoromethyl)-1H-pyrazol-1-yl]phenyl]-4-hydroxybenzamide]
other
  melting point: > 245 °C
[1]
  inhibition at 10 µM: 93%
  IC50: 388 nM

## CCCCCCOc1ccc(C(=O)Nc2ccc(-n3nc(C(F)(F)F)cc3C(F)(F)F)cc2)cc1 [Example 74, N-[4-[3,5-bis(trifluoromethyl)-1H-pyrazol-1-yl]phenyl]-4-(hexyloxy)benzamide]
other
  melting point: 153 to 155 °C
[1]
  inhibition at 100 µM: 83%
  IC50: 22800 nM

## Cc1cccc(C(=O)Nc2ccc(-n3nc(C(F)(F)F)cc3C(F)(F)F)cc2)c1 [Example 75, N-[4-[3,5-bis(trifluoromethyl)-1H-pyrazol-1-yl]phenyl]-3-methylbenzamide]
other
  melting point: 137 to 139 °C
[1]
  inhibition at 100 µM: 100%
  IC50: 368 nM

## CC(=O)Oc1ccccc1C(=O)Nc1ccc(-n2nc(C(F)(F)F)cc2C(F)(F)F)cc1 [Example 76, 2-(Acetyloxy)-N-[4-[3,5-bis(trifluoromethyl)-1H-pyrazol-1-yl]phenyl]benzamide]
other
  melting point: 159 to 161 °C
[1]
  inhibition at 100 µM: 100%
  IC50: 3170 nM

## Cc1cc(C)c(C(=O)Nc2ccc(-n3nc(C(F)(F)F)cc3C(F)(F)F)cc2)c(C)c1 [Example 78, N-[4-[3,5-bis(trifluoromethyl)-1H-pyrazol-1-yl]phenyl]-2,4,6-trimethylbenzamide]
other
  melting point: 203 to 205 °C
[1]
  inhibition at 100 µM: 95%
  IC50: 607 nM

## O=C(Nc1ccc(-n2nc(C(F)(F)F)cc2C(F)(F)F)cc1)Nc1ccc(Cl)c([N+](=O)[O-])c1 [Example 79, N-[4-[3,5-bis(trifluoromethyl)-1H-pyrazol-1-yl]phenyl]-N′-(4-chloro-3-nitrophenyl)urea]
other
  melting point: 207 to 209 °C
[1]
  inhibition at 1 µM: 9%

## FC(F)(F)c1cc(C(F)(F)F)n(-c2ccc(NCc3ccccc3Cl)cc2)n1 [Example 82, N-[4-[3,5-bis(trifluoromethyl)-1H-pyrazol-1-yl]phenyl]-2-chlorobenzenemethanamine]
other
  melting point: 240 °C
[1]
  inhibition at 100 µM: 100%
  IC50: 468 nM

## Cn1ncc(C(=O)Nc2ccc(-n3nc(C(F)(F)F)cc3C(F)(F)F)cc2)c1[N+](=O)[O-] [Example 83, N-[4-[3,5-bis(trifluoromethyl)-1H-pyrazol-1-yl]phenyl]-1-methyl-5-nitro-1H-pyrazole-4-carboxamide]
other
  melting point: 214 to 216 °C
[1]
  inhibition at 10 µM: 99%
  IC50: 71 nM

## Fc1ccc(CNc2ccc(-n3nc(C(F)(F)F)cc3C(F)(F)F)cc2)cc1 [Example 84, N-[4-[3,5-bis(trifluoromethyl)-1H-pyrazol-1-yl]phenyl]-4-fluorobenzenemethanamine]
other
  melting point: 92 to 94 °C
[1]
  inhibition at 1 µM: 76%
  IC50: 712 nM

## O=C(Nc1ccc(-n2nc(C(F)(F)F)cc2C(F)(F)F)cc1)c1ccc(Br)cc1 [Example 85, N-[4-[3,5-bis(trifluoromethyl)-1H-pyrazol-1-yl]phenyl]-4-bromobenzamide]
other
  melting point: 205 to 207 °C
[1]
  inhibition at 100 µM: 93%
  IC50: 275 nM

## CN(C)c1cccc(C(=O)Nc2ccc(-n3nc(C(F)(F)F)cc3C(F)(F)F)cc2)c1 [Example 88, N-[4-[3,5-bis(trifluoromethyl)-1H-pyrazol-1-yl]phenyl]-3-(dimethylamino)benzamide]
other
  melting point: 180 to 181 °C
[1]
  inhibition at 1 µM: 29%

## O=C(Nc1ccc(-n2nc(C(F)(F)F)cc2C(F)(F)F)cc1)c1ccc(C(F)(F)F)cc1 [Example 89, N-[4-[3,5-bis(trifluoromethyl)-1H-pyrazol-1-yl]phenyl]-4-(trifluoromethyl)benzamide]
other
  melting point: 170 to 172 °C
[1]
  inhibition at 100 µM: 99%
  IC50: 1230 nM
